Measurements taken from US20040043420A1, “Method of identifying conformation-sensitive binding peptides and uses thereof” (priority 2003, published 2004).

B1: B23H12 (peptide)
chain: MKLLSSIEQACDICRLKKLKCSKEKPKCAKCLKNNWECRYSPKTKRSPLTRAHLTEVESRLERLEQLFLLIFPREDLDMILKMDSLQDIKALLTGLFVQDNVNKDAVTDRLASVETDMPLTLRQHRISATSSSEESSNKGQRQLTVSEFPELLAMTRWGRHAALLEPQRLPPPRTTTQPQTEFERMFFFTRPMRTTGLLDLQPS

Key:
androgen receptor [1] = biological target: T1, androgen receptor (Homo sapiens, UniProt P10275); test: Yeast two-hybrid screening of unbiased X15 peptide library, ligand-induced β-galactosidase activity (FIG. 3, Table 503); format: cell-based; set-up: expressed in transfected cells; host or cells: Saccharomyces cerevisiae PJ69-4α; conditions: for Yeast Specificity Graph (FIG. 3): CPA: ligand CPA; for Yeast Specificity Graph (FIG. 3): DHT: ligand DHT; for Yeast Specificity Graph (FIG. 3): RU: ligand RU; for Yeast Specificity Graph (FIG. 3): No Lig: no ligand; for Yeast Specificity Graph (FIG. 3): MPA: ligand MPA; for Yeast Specificity Graph (FIG. 3): Test: ligand Test
T1 sequence (P10275 1-920): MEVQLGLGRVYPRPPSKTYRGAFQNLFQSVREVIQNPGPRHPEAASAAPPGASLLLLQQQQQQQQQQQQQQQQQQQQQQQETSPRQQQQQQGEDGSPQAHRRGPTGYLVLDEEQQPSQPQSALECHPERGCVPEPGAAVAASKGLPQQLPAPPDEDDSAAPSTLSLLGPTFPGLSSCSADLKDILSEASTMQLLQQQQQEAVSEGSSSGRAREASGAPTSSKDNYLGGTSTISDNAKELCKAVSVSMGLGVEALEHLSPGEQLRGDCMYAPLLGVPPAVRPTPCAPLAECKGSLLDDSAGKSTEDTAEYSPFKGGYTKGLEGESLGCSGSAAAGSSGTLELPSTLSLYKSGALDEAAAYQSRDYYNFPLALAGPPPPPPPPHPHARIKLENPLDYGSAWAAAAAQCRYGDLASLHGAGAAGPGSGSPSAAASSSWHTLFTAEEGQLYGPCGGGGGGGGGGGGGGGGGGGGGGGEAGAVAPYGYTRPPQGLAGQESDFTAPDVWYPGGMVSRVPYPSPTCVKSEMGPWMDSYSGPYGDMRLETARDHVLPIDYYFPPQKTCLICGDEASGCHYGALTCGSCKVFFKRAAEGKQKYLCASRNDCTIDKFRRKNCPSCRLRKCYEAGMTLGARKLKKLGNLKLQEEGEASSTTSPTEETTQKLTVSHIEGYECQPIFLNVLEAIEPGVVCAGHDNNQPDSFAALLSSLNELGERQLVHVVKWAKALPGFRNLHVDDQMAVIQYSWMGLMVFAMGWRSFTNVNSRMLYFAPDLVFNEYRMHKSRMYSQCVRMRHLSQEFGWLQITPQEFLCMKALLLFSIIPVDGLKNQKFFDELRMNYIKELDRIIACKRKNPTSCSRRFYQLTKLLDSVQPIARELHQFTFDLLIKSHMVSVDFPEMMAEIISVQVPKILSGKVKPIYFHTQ
Description: Our library contained predominantly 15 random amino acid residues/peptide in order to identify motifs that might interact with nuclear receptor domains. If ligand is provided to the cells, one can screen for peptides that interact with the ligand-bound receptor. […] Included at the ends of the oligonucleotide were the synthetic restriction endonuclease cleavage sites, EcoRI or Mfe I (5′ end) and Sal I (3′ end). Oligonucleotides were annealed, then cleaved with excess restriction endonuclease and purified on agarose gels. The purified set of oligonucleotides was subcloned as an in-frame carboxy-terminal fusion to a Gal4 DNA binding domain (plasmid vector pMA424 derivative). […] The transformation mix was divided and grown on plates of selective media containing ligand and 25 mM 3-aminotriazole at 30° C. until colonies appeared in 3-7 days. […] Dihydrotestosterone (DHT) and medroxyprogesterone (MPA) were added to the media at 100 nM to identify peptides that interact with the receptor in the presence of ligand. After colonies appeared they were picked and dispersed into individual wells of a 96-well plate containing rich media (YPD).
To determine ligand dependence, two microliter aliquots were removed from the cell suspension, and arrayed and spotted onto each of two rectangular agar plates, one with 100 nM ligand and one without ligand. Growth was monitored daily.
A secondary test of ligand dependent activation was performed using the integrated GAL4-driven lacZ gene. Cell suspensions of the initial positive clones were diluted 20-fold into 20 microliters of rich media in a microplate and grown overnight at 30° C. in the presence and absence of ligand. Microplates were centrifuged for 5 minutes at 3000 rpm in a swinging table top centrifuge to pellet the yeast cells, and the overlying media was aspirated. […] An OD650 density determination was made to normalize the β-galactosidase activity. β-galactosidase activity was monitored following the addition of buffer containing chlorophenol red-1-galactopyranoside (CPRG) (Boehringer Mannheim) substrate at a final concentration of 0.5 mM. […] The maximum slope value of this measurement was normalized to cell density from the initial OD650 value, and the relative ligand dependence of β-galactosidase was determined by comparing the values plus and minus ligand.
In FIG. 3, all of these ligands were tested. The plasmids from true positives were extracted using standard yeast extraction protocols and re-transformed to verify the positive phenotype.

androgen receptor [2] = biological target: T1, androgen receptor; format: cell-based; set-up: expressed in transfected cells; conditions: for Mammalian Cell Specificity Graph (FIG. 4): DHT: ligand DHT; for Mammalian Cell Specificity Graph (FIG. 4): MPA: ligand MPA; for Mammalian Cell Specificity Graph (FIG. 4): RU486: ligand RU486
Description: We used a mammalian two-hybrid system to determine specificities of the AR-binding peptides previously identified, through screening of the aforementioned yeast library, as ligand-dependent in their binding activity. Ligand was provided to the cells so the interaction could be observed. The human hepatoma cell line, Huh-7, was used as the recipient of two-hybrid vectors, pM and pVP16 (Clontech) (FIGS. 6A and 6B), containing fusions with peptide and AR, respectively. According to Clontech literature, the Clontech vectors pM and VP16 generate fusions of protein X with the GAL4 DNA-BD and fusions of protein Y with the VP16AD, in the Mammalian MM Two-Hybrid Assay Kit (#K1602-1). (Note: pM and VP16 contain unique cloning sites in the same order and reading frame as the DNA-BD and AD, respectively, vectors in the yeast […] Two-Hybrid Systems.) A third vector, pG5CAT, provides a CAT reporter gene under the control of a GAL4-responsive element and minimal promoter of the adenovirus E1b. The three vectors are cotransfected into any suitable mammalian host cell line by standard methods. The interaction between proteins X and Y is then assayed by measuring CAT gene expression by any standard method. In the absence-of activation (i.e., no protein-protein interaction), the minimal E1b promoter will not express significant levels of CAT.
Briefly, cells are seeded in a 24-well culture plate to a density of 50-80% confluence in phenol red-free media containing charcoal-dextran stripped fetal bovine serum (10%). Following incubation overnight, cells are transfected with plasmids pM-peptide, pVP16-AR, pCMV-b-gal, and p5XGAL-Luc3 DNAs using lipofectamine 2000 (LifeTech) according to the manufacturer's protocol. Transfections are allowed to proceed for 6 hours and the transfection media is aspirated and replaced with recovery media for 18 hours. Following the recovery period, cells are treated with compound for 24 hours prior to cell harvesting. Cells are washed with PBS and then lysed using the lysis buffer from the Galacto-Light Plus β-galactosidase assay kit (Tropix). Assays for luciferase and β-galactosidase were performed as described by the manufacturer. Peptide/AR interactions are described in terms of the luciferase activity normalized for transfection efficiency using β-galactosidase activity (see FIG. 4A). Two types of useful information arose from these methods: 1) we generated a panel of useful peptide probes to analyze the conformational state of AR, and 2) we “fingerprinted” AR modulators with respect to AR conformation (FIG. 4B). […] FIG. 4B is the converse of 4A. It compares the ability of six ligands (DHT, MPA, CYP, RU486, FLUT and DHEAs to interact with AR in the presence of each of four peptides (D30, 5G11, B8H3 and […]). Thus, it is a “fingerprint” of each of the six ligands using a four peptide panel. (Note that “1269” and D30″ refer to the same peptide.)

[3] = biological target: T2, Gal4 transcriptional activation domain (AD) fused in frame with AR (yeast, UniProt P10275 1-920, limits assumed); test: cell-based or functional assay
T2 sequence (looked up): T1 sequence (P10275 1-920)

ER α = biological target: T3, ER α (UniProt P03372 1-595, limits assumed); test: phage isolated on ERα-ERE; Estradiol
T3 construct: also called estrogen receptor α; ERα-ERE
T3 sequence (looked up): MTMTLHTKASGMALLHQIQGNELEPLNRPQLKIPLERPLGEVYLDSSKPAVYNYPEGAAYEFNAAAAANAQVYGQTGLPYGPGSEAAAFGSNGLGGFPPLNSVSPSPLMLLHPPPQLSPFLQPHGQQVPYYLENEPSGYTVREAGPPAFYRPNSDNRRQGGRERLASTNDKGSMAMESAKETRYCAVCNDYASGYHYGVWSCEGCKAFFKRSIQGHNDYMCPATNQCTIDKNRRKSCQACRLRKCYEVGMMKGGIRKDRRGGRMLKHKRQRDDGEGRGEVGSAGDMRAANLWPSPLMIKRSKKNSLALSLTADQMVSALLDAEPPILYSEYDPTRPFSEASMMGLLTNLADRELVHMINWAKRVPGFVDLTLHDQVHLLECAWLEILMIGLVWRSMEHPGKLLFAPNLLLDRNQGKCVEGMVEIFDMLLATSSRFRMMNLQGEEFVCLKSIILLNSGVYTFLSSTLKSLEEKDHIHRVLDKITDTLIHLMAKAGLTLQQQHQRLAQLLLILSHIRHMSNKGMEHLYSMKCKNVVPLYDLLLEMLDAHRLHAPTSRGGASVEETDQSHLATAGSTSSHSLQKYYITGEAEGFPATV

| Molecule | Yeast Specificity Graph (FIG. 3): CPA (androgen receptor [1]) | Yeast Specificity Graph (FIG. 3): DHT (androgen receptor [1]) | Yeast Specificity Graph (FIG. 3): RU (androgen receptor [1]) | Yeast Specificity Graph (FIG. 3): No Lig (androgen receptor [1]) | binding result (ER α) | further results |
| --- | --- | --- | --- | --- | --- | --- |
| EFVNWDAVVPWSELVALLDLOPS [B8A10] | 0.3955 | 0.6163 | 0.4 | 0.8753 |  | Fold induction (androgen receptor [1]): 1 |
| EFRQSFVSEILGGGWLPLDLOPS [M2H3] | 8.592 | 24.12 | 6.8 | 2.53 |  | Fold induction (androgen receptor [1]): 10; Yeast Specificity Graph (FIG. 3): MPA (androgen receptor [1]): 19.25; Yeast Specificity Graph (FIG. 3): Test (androgen receptor [1]): 26.57 |
| EFPELLAMTRWGRHAALLEPQRLPPPRTTTQPQTEFERMFFFTRPMRTTGLLDLOPS* [B2A7] | 0.2919 | 1.719 | 0.5 | 0.3711 |  |  |
| EFRFPFHEMVREWESMGLERVRYAEP [M4D1] | −0.03955 | 0.3948 | 0.1 | 0 |  | Yeast Specificity Graph (FIG. 3): MPA (androgen receptor [1]): 1.698; Yeast Specificity Graph (FIG. 3): Test (androgen receptor [1]): 0.1337 |
| EFRSSVFEQMYLCTGGSLDLOPS* [B5G11] | 0.9726 | 3.964 | 0.9 | 0.6382 |  | Mammalian Cell Specificity Graph (FIG. 4): CYP. (androgen receptor [2]): 4.462 Relative Light Units; Mammalian Cell Specificity Graph (FIG. 4): DHT (androgen receptor [2]): 15.84 Relative Light Units; Mammalian Cell Specificity Graph (FIG. 4): MPA (androgen receptor [2]): 8.029 Relative Light Units; Mammalian Cell Specificity Graph (FIG. 4): RU486 (androgen receptor [2]): 0.1051 Relative Light Units; Mammalian Cell Specificity Graph (FIG. 4): no compound (androgen receptor [2]): 0.05028 Relative Light Units |
| HPTHSSRLWELLMEATPTM [D30] |  |  |  |  |  | Mammalian Cell Specificity Graph (FIG. 4): CYP. (androgen receptor [2]): 11.18 Relative Light Units; Mammalian Cell Specificity Graph (FIG. 4): DHT (androgen receptor [2]): 12.59 Relative Light Units; Mammalian Cell Specificity Graph (FIG. 4): MPA (androgen receptor [2]): 15.62 Relative Light Units; Mammalian Cell Specificity Graph (FIG. 4): RU486 (androgen receptor [2]): 0.8461 Relative Light Units; Mammalian Cell Specificity Graph (FIG. 4): no compound (androgen receptor [2]): 0.03854 Relative Light Units |
| EFHSRLRVEVVSWGIGSTCSQANSGRISYDL* [B8H3] | 0.3927 | 3.807 | −0.0 | 0.1737 |  | Fold induction (androgen receptor [1]): 22; Mammalian Cell Specificity Graph (FIG. 4): CYP. (androgen receptor [2]): 10.47 Relative Light Units; Mammalian Cell Specificity Graph (FIG. 4): DHT (androgen receptor [2]): 11.6 Relative Light Units; Mammalian Cell Specificity Graph (FIG. 4): MPA (androgen receptor [2]): 11.33 Relative Light Units; Mammalian Cell Specificity Graph (FIG. 4): RU486 (androgen receptor [2]): 3.879 Relative Light Units; Mammalian Cell Specificity Graph (FIG. 4): no compound (androgen receptor [2]): 0.1316 Relative Light Units |
| B1 |  |  |  |  |  | β-galactosidase activity (yeast two-hybrid), MPA [3]: 1.31; β-galactosidase activity (yeast two-hybrid), Test [3]: 2.44 |
| HSHNHHSPWLFRLLGG [E1-1] |  |  |  |  | binds |  |
| HSHPHHSHLLYKLMGG [E1-3] |  |  |  |  | binds |  |
| HSHPLPPLLSRLLTGG [E1-4] |  |  |  |  | binds |  |
| SRLTCLLQSNGWDSEQCSR [E1-7] |  |  |  |  | binds |  |
| SRSPILTHLLSLGSR [2E] |  |  |  |  | binds |  |
| SSTGILWKLLTAESR [3E] |  |  |  |  | binds |  |
| SSHGILWRLLSEGSR [9E] |  |  |  |  | binds |  |
